Assay results: a melting point compilation (Tetko et al.; mined from patent text by program, amines drawn as free bases though some values may be those of a salt)

| SMILES | melting point |
| --- | --- |
| O=C(O)c1ccccc1OCCOc1cccc2ccccc12 | 205 to 207 °C |
| Clc1ccc(-c2ccnc(CN3CCC(c4ccc(Cl)cc4)CC3)c2)cc1 | 89 to 91 °C |
| CC(C)c1ccc(S(=O)(=O)Nc2ncc(C(F)(F)F)cc2I)cc1 | 124 °C |
| CCCCCCCCCCCCC#CC#CCn1c2ccccc2c2ccccc21 | 53 to 58 °C |
| [N-]=[N+]=NC1CC(n2cc(Cl)c(=O)[nH]c2=O)OC1CO (centres undefined) | 65 °C |
| CCOCc1nc2c(N)nc3ccccc3c2n1CCCC(C)=O | 173 to 175 °C |
| OCc1cnc(-c2ccc(OC(F)(F)F)cc2)nc1 | 84 to 85 °C |
| Cc1nc2cc3c(cc2c(=O)[nH]1)C(N(C)c1ccc(C(=O)NC(CCC(=O)NC(C(=O)O)c2ccc(CC(=O)O)cc2)C(=O)O)c(F)c1)CC3 (centres undefined) | 175 to 177 °C |
| O=[N+]([O-])CS(=O)(=O)c1cccc2c1sc1ccccc12 | 145 to 146 °C |
| CCCCC=Cc1cc2ccccc2[nH]1 | 70 to 72 °C |
| O=C(O)C1Cc2cccc(-c3ccccc3)c2C1 (centres undefined) | 97 to 102 °C |
| Cc1nc(-c2ccc(-c3ccc(C(=O)Nc4cc(OCCN(C)C)c(I)cc4I)cc3)c(C)c2)no1 | 69 to 71 °C |
| CC1COc2c(F)c(F)c(N)c3c(=O)[nH]c(=O)n1c23 (centres undefined) | > 280 °C |
| O=C1CCc2ncc3c(c21)CCO3 | 148 to 149 °C |
| Nc1nc(NCCc2ccc(C=CC3CCCCC3)cc2)nc2c1ncn2C1OC(CO)C(O)C1O (centres undefined) | 161 to 164 °C |
| O=[N+]([O-])c1cnn(-c2ccc(C(F)(F)F)cc2Cl)c1 | 106 to 109 °C |
| CCOc1cc([N+](=O)[O-])c(C)c(C)c1[N+](=O)[O-] | 64 to 66 °C |
| Nc1cc(Oc2cc(N)cc(C(F)(F)F)c2)cc(C(F)(F)F)c1 | 223 to 224 °C |
| CCOC(=O)NS(=O)(=O)c1c(Cl)c(C)nn1C | 106 to 109 °C |
| C[C@H](NC(=O)c1cc(F)cc(NS(=O)(=O)CC2CN(C(c3ccc(Cl)cc3)c3ccc(Cl)cc3)C2)c1)C(N)=O | 219 to 221 °C |
| CCOc1ncc(I)cc1C(=O)OC | 67 to 69 °C |
| Cc1cc(C)n(C)c(=O)c1C#N | 202 to 205 °C |
| CCOC(=O)C(C)(C)C(=O)C(Oc1ccc(Cl)cc1)n1ccnc1 (centres undefined) | 88 °C |

| SMILES | melting point |
| --- | --- |
| CCNc1cccc(NC(=O)COC)c1C#N | 118 to 119 °C |
| COC(=O)C(C)(C)OCC#Cc1cc(C(F)(F)F)ccc1NS(=O)(=O)c1cc(C)cc(C)c1 | 128 to 130 °C |
| CCOC(=O)c1ccc(OC(=O)CCCCC(=O)Oc2ccc(C(=O)OCC)cc2)cc1 | 82 to 83 °C |
| CC(C)CCCC(C)NC(=O)Oc1ccc(Oc2ccccc2)cc1Br (centres undefined) | 64 to 67 °C |
| CC1=C(C)C(=O)C(CCCCCC2=C(C)C(=O)C(C)=C(C)C2=O)=C(C)C1=O | 138 °C |
| COc1ccc(CC(O)c2ccccn2)cc1OC (centres undefined) | 93 to 94 °C |
| COC(=O)Nc1nc(C)c(-c2nc3ccccc3c(=O)n2-c2cccc(C)c2)s1 | 232 to 233 °C |
| NC(=NCC(F)(F)F)Nc1ccnc(CCCCc2c[nH]cn2)n1 | 191 to 193 °C |
| OC[C@H]1OC[C@@H](n2c(Br)nc3cc(Cl)c(Cl)cc32)[C@H](O)[C@@H]1O | 207 to 209 °C |
| COc1ccc(Nc2ncc(Br)c(Nc3ccc(OC)c(OC)c3OC)n2)c(OC)c1OC | 186 to 191 °C |
| C/C(=C\C(C)O)c1ccc(C2CCCCCC2)cc1 (centres undefined) | 64 to 65 °C |
| Fc1nccc(I)c1CCCCl | 24 to 25 °C |
| C1CNCCNCCNCNCCNC1 | 49 to 51 °C |
| Cc1ccc(Nc2nc(-c3ccccc3)c(-c3nc4ccccc4c(=O)n3-c3ccc(Cl)cc3)s2)cc1 | 225 to 227 °C |
| CCn1cc(C(=O)NCc2ccc(Cl)cc2)c(=O)c2cc(C#CCCO)sc21 | 158 to 162 °C |
| COC(=O)CNc1cccc(OCc2ccccc2)c1 | 92 to 94 °C |
| Cn1c(Br)c(C#N)c(C(F)(F)F)c1Br | 101 to 104 °C |
| CCCCC(Cn1cncn1)(C(=O)O)c1ccc(Cl)cc1 (centres undefined) | 169 to 171 °C |
| COc1cc2c(c3c1C1CCC3CC1)OC(CN)C2 (centres undefined) | > 210 °C |
| N#Cc1ccc2c(c1)c1c(n2Cc2cccc(F)n2)CCC(NC(=O)C2CC2)C1 (centres undefined) | 243 to 245 °C |
| OCCc1ccc(OCc2coc(/C=C/c3ccccc3)n2)cc1 | 123 to 124 °C |
| N#Cc1cc(C(F)(F)F)[nH]c1-c1ccc(Cl)c([N+](=O)[O-])c1 | 258 to 260 °C |
| CCCN(CCC)S(=O)(=O)c1ccc(C(=O)c2cc3c(cc2C)OC(C(=O)OCC)O3)cc1 (centres undefined) | 97 to 99 °C |

| SMILES | melting point |
| --- | --- |
| CC(=O)Oc1ccccc1C(=O)ON(C(N)=O)C(C)c1cc2ccccc2s1 (centres undefined) | 141 to 143 °C |
| COc1cc2ncnc(N3CCc4ccc(Cl)cc43)c2cc1Cl | 226 °C |
| O=[N+]([O-])c1ccc2c(c1)C(Cc1ccncc1)(Cc1ccncc1)c1ccccc1-2 | 260 to 264 °C |
| N#Cc1cc(C(=O)O)c2c(c1)C(C(=O)O)CCN2 (centres undefined) | 235 to 236 °C |
| COc1cc(OC)cc(C2CN3CCC2CC3)c1 (centres undefined) | 142 to 145 °C |
| Nc1ncc(S(=O)c2ccncc2)s1 (centres undefined) | 193 to 195 °C |
| O=C1Nc2ccccc2C12CCNCC2 | 184 to 186 °C |
| CCCNC(=O)C(C#N)=C1Nc2ccccc2O1 | 215 to 220 °C |
| N#Cc1cc(O)cc2cc(-c3ccc(O)c(F)c3)oc12 | > 300 °C |
| N#CSc1ccc(SCc2ncon2)cc1 | 78 °C |
| Oc1nc(NCc2ccc(F)cc2)nc(Nc2cccc(C(F)(F)F)c2)n1 | 266 to 268 °C |
| O=C(Nc1cc(C(F)(F)F)ccc1O)Nc1ccccc1C(F)(F)F | 158 to 159 °C |
| CC(C)c1ccc(OC(Cc2ccc(OCCNC(=O)c3ccc(-c4ccc(F)cc4)cc3)cc2)C(=O)O)cc1 (centres undefined) | 192 to 193 °C |
| CC(=O)NC(Cc1c[nH]c2ccccc12)C(=O)NCc1cc(C(F)(F)F)cc(C(F)(F)F)c1 (centres undefined) | 171 to 173 °C |
| CCCCCc1ccc(Br)nn1 | 31 to 32 °C |
| COc1ccc(CSc2nc(O)cc(C(F)(F)F)n2)cc1 | 169 to 170 °C |
| CC(C(=O)N(C)C)n1nc(-c2ccccc2)c(Br)c1Br (centres undefined) | 132 to 134 °C |
| NC(=O)N(O)Cc1ccc(Cl)s1 | 138 to 140 °C |
| N#Cc1c([N+](=O)[O-])ccc(Cl)c1CBr | 89 °C |
| Cc1oc2ccccc2c1C(=O)N(Cc1ccccc1)Cc1ccc2c(Br)c(O)ccc2c1 | 184 to 185 °C |
| CCNC(=O)C(C)NC(=O)OCc1ccccc1 (centres undefined) | 116 to 117 °C |
| CS(=O)(=O)N1CCN(S(=O)(=O)c2ccc3c(c2)S(=O)(=O)NC(C2CCCCC2)N3)CC1 (centres undefined) | 272 to 274 °C |
| CCCOC(=O)c1ccc(OC(=O)c2ccccc2C(=O)Oc2ccc(C(=O)OCCC)cc2)cc1 | 87 to 89 °C |

The remaining lines, values ahead:

| melting point | SMILES |
| --- | --- |
| 171 to 172 °C | Cn1ncnc1COc1nc2c(cc1-c1ccsc1)nnn2-c1c(F)cccc1F |
| 214 to 215 °C | S=C1Nc2cc(Br)ccc2-n2ccc3cccc1c32 |
| 157 to 158 °C | N#Cc1cnn2c1N(C(=O)CN1CCC(Cc3ccccc3)CC1)CC=C2c1cc(Cl)ccc1Cl |
| 88 °C | COc1ccc2c(C(=O)CC(C)=O)c(OC)ccc2c1 |
| 254 °C | O=C(Nc1cccc(F)n1)Nc1cccc2c1C1CCCCN1C2=O (centres undefined) |
| 168 to 169 °C | Cc1cc(NC2=NCCN2)n(-c2ccccc2C)n1 |
| 178 to 180 °C | O=C1Cc2cccc(Sc3ccccc3Cl)c2N1 |
| 170 to 171 °C | CCOC(=O)c1oc(SC)c2c1CCc1sc(-c3ccccc3)nc1-2 |
| 248 °C | CCn1c(N)c(C(N)=O)c(=O)c2cnc(Nc3ccc(NCC(=O)C4CC4)cc3)nc21 |
| 111 °C | CN1CC(c2ccc(S(C)(=O)=O)cc2)=C(c2ccc(F)cc2)C1=O |
| 93 to 95 °C | CC(=O)c1ccc(-c2ccc(F)cc2Cl)c([N+](=O)[O-])c1 |
| 130 °C | CSC1C(=O)Nc2c(C(=O)c3ccccc3)cccc21 (centres undefined) |
| 148 to 149 °C | CC(C)C[C@H](NC(=O)OCC1CCCCC1)C(=O)N[C@@H](C(C)C)[C@H](O)c1c(-c2ccccc2)c1=O |
| 140 to 145 °C | O=C1COCCN1c1ccc(N2C[C@@H](CN(Cc3ccccc3)Cc3ccccc3)OC2=O)cc1 |
| 132 to 134 °C | CCCOc1cc2c(c3c1OC(C)(C)C3)C(c1cccc(-c3ccncc3)c1)=NC(C)(C)C2 |
| 194 to 197 °C | Cc1cc(C)c(N2c3ccccc3S(=O)(=O)c3cc(C=O)ccc32)c(C)c1 |
| 139 to 141 °C | CCC(C)(C)c1ccc(OCC(=O)Nc2cccc(C(=O)Nc3[nH]n(-c4c(Cl)cc(Cl)cc4Cl)c(=O)c3Br)c2)c(C(C)(C)CC)c1 |
| 176 to 179 °C | Cc1c(C)c(N2CCN(c3ccc(F)cc3)CC2)c(C)c2c1OC(C)(C)C2=O |
| 155 to 157 °C | Cc1ccc(OS(=O)(=O)c2ccc(N3CCN(C)C3=O)cc2)cc1 |
| 234 °C | COc1cccc2c1N(S(=O)(=O)c1ccc(-c3ccc(F)cc3F)cc1)C(C(=O)NCCOc1ccc(C(=O)O)cc1)C2 (centres undefined) |
| > 250 °C | Cc1c(C(=O)O)nc2c(=O)[nH]c3cc(F)ccc3n12 |
| 136 °C | Cc1ccc(OC(=O)n2c3c(c(=O)n(C4CCCCO4)c2=O)CCC3)cc1 (centres undefined) |
| 137 to 138 °C | CC(=O)NC[C@H]1CN(c2ccc(N3CC(C)(O[Si](C)(C)C(C)(C)C)C3)c(F)c2)C(=O)O1 |
| 235 to 236 °C | COC(=O)c1c(Cc2ccc(C(=O)N(C)C)nc2)c(=O)c2ccc(C)nc2n1-c1ccccc1 |
| 249 to 250 °C | O=C(O)c1cc(N2C(=O)C(c3ccccc3)=C(c3ccccc3)C2=O)ccc1O |
| 105 °C | CCOC(=O)c1cccc(OCCCC2CCN(c3ccc(Cl)nn3)CC2)c1 |
| 164 °C | CCc1nc(C(F)(F)F)c(CN(C(=O)C2CCCc3c(O)cccc32)c2ccc(C(C)C)nc2)s1 (centres undefined) |
| 95 to 96 °C | O=C(O)CCCCCc1nn(-c2ccc(F)cc2)c2c1CCCC2 |
| 260 to 262 °C | COc1cc2c(Nc3ccc(Sc4nccn4C)c(Cl)c3)c(C#N)cnc2cc1-c1ccc(CN2CCOCC2)cc1 |
| 223 to 225 °C | CCOC(=O)c1c(Nc2ccc(Cl)cc2)n[nH]c1C |
